According to US20070213312A1, “Hif-1 Inhibitors and Methods of Use Thereof” (priority 2003, published 2007):
Residues, ends and D or L forms follow the SMILES beside them. *: point of attachment. Cbz = O=C(OCc1ccccc1)*

Experiments:
[1] = system: HIF-1α; experiment: HIF-1α detection in cells exposed to DBM plus metals (summary statements); type: cell-based, human; conditions: cells exposed to DBM plus the metal; HEK 293 and HT144 for Zn^2+
Excerpt: In subsequent studies, similar data has been found for HEK 293 human embryonic kidney cells and HT144 melanoma cells treated with either DBM or Zn^2+. […] This finding appears to be unique to the combination of DBM with Zn^2+ since it was not observed in cells exposed to DBM plus other metals such as Fe^3+, Co^2+, Cd^2+, and Ni^2+. Furthermore, this unexpected reversal of the independent effects of DBM and Zn^2+ was not blocked by hypoxia. These observations are counterintuitive since inhibitors of HIF P4H should impede degradation of HIF-1α. Also, these two HIF P4H inhibitors appear to work in concert under inhibitory conditions to down-regulate HIF-1α with little effect on HIF-1α mRNA levels.
Basal levels of HIF-1α are low in cells exposed to ambient oxygen, yet under these conditions both DBM and Zn^2+ stabilize HIF-1α and cause the accumulation of HIF-1α protein (FIG. 15). It has been shown that this stabilizing effect on HIF-1α was itself reversed by the concomitant addition of Zn^2+ to DBM under ambient oxygen. […] This destabilizing effect appears unique to the combination of DBM plus Zn^2+ since it was not observed with other metals known to form chelates with DBM such as Fe^3+, Co^2+, Cd^2+ and Ni^2+. […] Though assessment of downstream effectors of HIF-1α (e.g., VEGF) was not included in the preliminary data, the effects of DBM and cobalt on VEGF in LNCaP human prostate cancer cells have been previously reported.

[2] = system: HIF-1α; experiment: Western blot analysis of HIF-1α in HEK 293 cells under hypoxia (1% O2); type: cell-based, human; conditions: 2 hours under 1% O2, metal added together with DBM
Description: (§1) HT 144 melanoma cells (FIG. 16 (A)) and HEK 293 embryonic kidney cells (FIG. 16 (B)) were incubated for 2 hours under 1% O2. HIF-1α was detected by Western blot at baseline ([…] lane 1).

[3] = system: HIF-1α; experiment: Western blot analysis of HIF-1α in HT144 melanoma cells under hypoxia (1% O2); type: cell-based, human; conditions: for HIF-1α levels by Western blot: HT 144 melanoma cells, 2 hours under 1% O2
Description: as §1

[4] = system: HIF-1α; conditions: LNCaP cells, ambient O2; cited from earlier work
[5] = system: VEGF; conditions: LNCaP cells, ambient O2; cited from earlier work
[6] = system: HIF-1α; experiment: Western blot analysis of HIF-1α in HEK 293 cells under ambient oxygen (normoxia); type: cell-based, human; conditions: HEK 293, ambient oxygen; for HIF-1α levels by Western blot: 1 hr, DBM 100 μM, Zn^2+ 25 μM to 100 μM, alone or combined; for HIF-1α by Western blot: agent(s) without further addition; for HIF-1α by Western blot in the presence of proteosome inhibitor MG-132: MG-132 added to the agent(s)
Description: The first unexpected finding was that the combination of DBM plus Zn^2+ reversed the induced stabilization of HIF-1α observed when the cells were exposed to either DBM or Zn^2+ alone under normoxic conditions (FIG. 15). […] HIF-1α was not detected at baseline by Western blot (FIG. 15, lane 1).
Proteosomal degradation of HIF-1α was assessed in HEK 293 embryonic kidney cells treated with DBM alone, Zn^2+ alone or the combination under ambient oxygen in the presence or absence of the proteosome inhibitor MG-132 (FIG. 18). […] (FIG. 18, lane 5). […] The HIF-1α isoforms are more clearly resolved on the gel from FIG. 18 than FIG. 15. This may be due to differences in the time the gels were run.

[7] = system: HIF-1α mRNA; experiment: Semiquantitative PCR (RT-PCR) of HIF-1α mRNA in HEK 293 cells under normoxia; type: cell-based, human; conditions: HEK 293, normoxia, 2 hours, serum free media
Description: The effects of DBM alone, Zn^2+ alone and DBM plus Zn^2+ on HIF-1α mRNA levels were assessed by semiquantitative PCR in extracts of HEK 293 kidney cells under normoxia for 2 hours in serum free media (FIG. 17). […] HIF-1αZ mRNA levels were not found to be increased (data not shown).

[8] = system: kidney cancer; conditions: patients with metastatic disease, high doses; cited from earlier work
[9] = system: HIF-1αZ; conditions: cited from earlier work
[10] = system: HIF-1α; experiment: Western blot analysis of HIF-1α in VHL (−/−) RCC-4 renal cell carcinoma cells under normoxia; type: cell-based, human; conditions: RCC-4 VHL (−/−), normoxic conditions; MG-132 for 1 hour
Excerpt: As expected, HIF-1α was detected by Western blot under normoxic conditions (FIG. 19, lane 1). […] These experiments have not been performed as yet in RCC4 cells with DBM alone or in RCC4 cells transfected with pVHL.

[Fe+3] [Fe^3+]
Loss of HIF-1α (no HIF-1α detected) when metal is combined with DBM [1]: not observed | Effect of metal added to DBM on HIF-1α levels by Western blot [2]: decreased slower migrating isoforms of HIF-1α | Effect of metal added to DBM on HIF-1α levels by Western blot ([3]; HT 144 cells, 2 hours under 1% O2, metal added together with DBM): did not significantly alter the effect of DBM on HIF-1α levels

[Co+2] [Co^2+, reference compound]
Loss of HIF-1α (no HIF-1α detected) when metal is combined with DBM [1]: not observed | HIF-1α levels [4]: rapidly increase | VEGF levels [5]: rapidly increase

O=C(CC(=O)c1ccccc1)c1ccccc1 [DBM, 1,3-diphenylpropane-1,3-dione]
HIF-1α levels by Western blot [6]: significant increase in HIF-1α levels | HIF-1α by Western blot ([6]; 2 hours): readily detected | HIF-1α by Western blot in the presence of proteosome inhibitor MG-132 [6]: did not stabilize these other forms of HIF-1α | HIF-1α levels [4]: rapidly increase | VEGF levels [5]: rapidly increase | HIF-1α levels by Western blot [3]: significantly increased the levels of HIF-1α | HIF-1α mRNA levels by semiquantitative PCR [7]: not significantly different from baseline

bevacizumab: humanized monoclonal antibody specific for VEGF
Clinical responses [8]: Clinical responses have been observed

[Zn+2] [Zn^2+]
HIF-1α levels by Western blot [6]: increased HIF-1α levels in a dose dependent manner | Molecular weight of stabilized HIF-1α isoforms ([6]; 2 hours): higher molecular weight than those induced by DBM | HIF-1α by Western blot ([6]; 2 hours): readily detected | HIF-1α by Western blot in the presence of proteosome inhibitor MG-132 [6]: did not stabilize these other forms of HIF-1α | HIF-1α levels by Western blot [3]: decreased the more rapidly migrating isoforms of HIF-1α | HIF-1α mRNA levels by semiquantitative PCR [7]: not significantly different from baseline | Zn^2+ concentration at which HIF-1αZ exhibits loss of exon 12 [9]: above 100 μM

[Ni+2] [Ni^2+]
Loss of HIF-1α (no HIF-1α detected) when metal is combined with DBM [1]: not observed

CC(C)C[C@@H](C=O)NC(=O)[C@H](CC(C)C)NC(=O)[C@H](CC(C)C)NC(=O)OCc1ccccc1 [MG-132, reference compound] (Cbz-Leu-Leu-Leu-aldehyde)
HIF-1α by Western blot ([6]; 2 hours): accumulation of a broad range of proteins that possibly represent ubiquitinated forms of HIF-1α | HIF-1α by Western blot [10]: Stabilization of HIF-1α was enhanced

[Cd+2] [Cd^2+]
Loss of HIF-1α (no HIF-1α detected) when metal is combined with DBM [1]: not observed
